In article PMC11528320, “S-MGBs bearing amidine tail groups are potent, selective antiplasmodial agents” (RSC Medicinal Chemistry, 2024):
Read-outs that look alike come from different tables or passages of the source.

What was measured:
HEK293 cells = test: HEK293 cell viability (resazurin) assay; type: cell-based, Human; details: for inhibition at 80 µM: Homo sapiens, HEK293, 72 h; for SI, HEK293/3D7: ratio of HEK293 IC50 (or relative IC50) to P. falciparum 3D7 IC50
Protocol: Cell viability was assessed using a minor modification of the protocol previously described.[14] Human embryonic kidney cells (HEK293) were maintained in Dulbecco's modified Eagle's medium supplemented with 10% foetal bovine serum.

[1] = test system: double stranded DNA oligo 5′-CGCATATATGCG-3′; test: native mass spectrometry (nESI-MS) of binding to dsDNA oligo; details: 9 μM DNA, 100 μM S-MGB
Protocol: DNA oligonucleotide sequence 5′-[…]-3′ was purchased in lyophilized form from Alpha DNA, Canada) and used without further purification, purity assessed by NMR. 100 μM stock solutions of DNA were prepared with 150 mM ammonium acetate solution (Fisher Scientific, Loughborough, Leicestershire, UK) and 2 mM potassium chloride solution (Fisher Scientific, Loughborough, Leicestershire, UK). This solution was annealed at 90 degrees for 10 minutes and allowed to cool to room temperature. 10 mM S-MGB stock in 100% DMSO (Sigma-Aldrich, St. Louis, MO, USA) were diluted to 1 mM S-MGB solution with 150 mM ammonium acetate. Final samples were prepared from this solution to yield final concentrations of 9 μM DNA, 100 μM KCl, and 100 μM s-MGB, 1% DMSO. DNA solutions containing no S-MGB included 1% DMSO and were used as controls.
Native mass spectrometry experiments were carried out on a Synapt G2Si instrument (Waters, Manchester, UK) with a nanoelectrospray ionization source (nESI). Mass calibration was performed by a separate infusion of NaI cluster ions. Solutions were ionized from a thin-walled borosilicate glass capillary (i.d. 0.78 mm, o.d. 1.0 mm, Sutter Instrument Co., Novato, CA, USA) pulled in-house to nESI tip with a Flaming/Brown micropipette puller (Sutter Instrument Co., Novato, CA, USA). A negative potential in range of 1.0–1.2 kV was applied to the solution via a thin platinum wire (diameter 0.125 mm, Goodfellow, Huntingdon, UK). The following non-default instrument parameters were used for the DNA: S-MGB-241 complex: capillary voltage 1.4 kV, sample cone voltage 100 V, source offset 110 V, source temperature 40 °C, trap collision energy 3.0 (V), trap gas 3 mL min^−1. For DNA with no MGB present, the following parameters were changed: capillary voltage 1.0 kV, sample cone voltage 80 V, source offset 95 V and trap gas 4.0 mL min^−1. Data were processed using Masslynx V4.2 and OriginPro 2021, and figures were produced using Chemdraw.

P. falciparum 3D7 = test: in vitro asexual P. falciparum imaging assay, 3D7 strain; type: cell-based; details: Plasmodium falciparum
Protocol: (§1) The antiplasmodial in vitro assay was performed as previously described.[13] In brief, P. falciparum parasites (3D7 and Dd2 strains) were grown in RPMI-1640 medium supplemented with 25 mM HEPES, 5% AB human male serum, 2.5 mg mL^−1 Albumax II, and 0.37 mM hypoxanthine. Parasites were subjected to two rounds of sorbitol synchronization prior to compound addition. Ring stage parasites were incubated with compounds in 384-well imaging CellCarrier microplates, for 72 h at 37 °C, 90% N2, 5% CO2, 5% O2, parasites stained with 4′,6-diamidino-2-phenylindole (DAPI) and imaged using an Opera QEHS microplate confocal imaging system (PerkinElmer). Images were analysed as previously described,[13] and raw data normalized using the in-plate positive and negative controls to obtain percent inhibition, used to calculate IC50 values, through a four-parameter logistic curve fitting in Prism (GraphPad).

[2] = test system: Salmon genomic DNA (gDNA); test: UV-vis DNA thermal melting (thermal shift) with gDNA; type: binding; details: 10 μM S-MGB, 0.02 mg mL^−1 salmon gDNA, N = 3; for Tm of S-MGB + gDNA: gDNA alone 70
Protocol: Salmon genomic DNA (gDNA; D1626, Sigma-Aldrich) at 1 mg mL^−1 in 1 mM phosphate buffer (pH 7.4) containing 0.27 mM KCl and 13.7 mM NaCl (P4417, Sigma-Aldrich) was annealed at 90 °C for 10 min and left to cool to room temperature. S-MGBs at 10 mM in DMSO were diluted with the same phosphate buffer to yield a single sample with 10 μM S-MGB and 0.02 mg mL^−1 gDNA in 1 mM phosphate buffer containing 0.27 mM KCl and 13.7 mM NaCl. Control samples containing only S-MGB or gDNA were prepared, respectively. Samples were melted at a rate of 0.5 °C min^−1 from 45 °C to 90 °C with spectra recorded at 260 nm on a UV-1900 UV-vis spectrophotometer fitted with a Peltier temperature controller (Shimadzhu) using LabSolutions (Tm Analysis) software. The melting temperatures (Tms) of the S-MGB:DNA complexes were determined by fitting a sigmoidal function using a Boltzmann distribution in OriginPro.

P. falciparum Dd2 = test: in vitro asexual P. falciparum imaging assay, Dd2 strain; type: cell-based; details: for IC50: Plasmodium falciparum, DD2, 72 h, read-out: Dd2 IC50; for Dd2/3D7: ratio of Dd2 IC50 to 3D7 IC50 (cross-resistance)
Protocol: as §1

[3] = 3D7, strain not specified, read-out: potency against P. falciparum (approximate, conclusion)

SMILES | inhibition at 80 µM (HEK293 cells) [%] | HEK293 top concentration tested, used to calculate SI (HEK293 cells; not rIC50 as < 30% inhibition) [nM] | SI, HEK293/3D7 (HEK293 cells) | SI, HEK293/3D7 (HEK293 cells; listed as 359) | binding to dsDNA as dimer [DS + 2 M] [1] | binding to dsDNA as monomer [DS + 1 M] [1] | IC50 (P. falciparum 3D7; 3D7, 72 h, read-out: 3D7 IC50) [nM] | IC50 (P. falciparum 3D7; [3]) [nM] | ΔTm [2] [°C] | Tm of S-MGB + gDNA [2] [°C] | IC50 (P. falciparum Dd2) [nM] | Dd2/3D7 (P. falciparum Dd2) | SI, HEK293/3D7 (HEK293 cells; listed as S-MGB-356) | SI, HEK293/3D7 (HEK293 cells; listed as 368)
Cn1cc(NC(=O)c2cc(NC(=O)c3ccc(/C=C/c4ccc5ccccc5c4)cc3)cn2C)cc1C(=O)NCCC(=N)N.O=C(O)C(F)(F)F [S-MGB-359] | 23 | 80 | > 264.8 | >264.8 | bind to DNA as dimers | minor peak corresponding to the monomer complex | 302.1 ± 0.6 | ~100 | 16 | 86 | 318.6 ± 1.1 | 1.1 | – | –
Cn1cc(NC(=O)c2cc(NC(=O)c3ccc(/C=C/c4ccncc4)cc3)cn2C)cc1C(=O)NCCC(=N)N.O=C(O)C(F)(F)F.O=C(O)C(F)(F)F [S-MGB-365] | 95 | – | >612.6 | – | bind to DNA as dimers | no evidence | 65.3 ± 0.2 | ~100 | 12 | 82 | 79.6 ± 0.2 | 1.2 | > 612.6 | –
COc1cccc(/C=C/c2ccc(C(=O)Nc3cc(C(=O)Nc4cc(C(=O)NCCC(=N)N)n(C)c4)n(C)c3)cn2)c1.O=C(O)C(F)(F)F.O=C(O)C(F)(F)F [S-MGB-368] | 92 | – | > 335.8 | – | bind to DNA as dimers | no evidence | 134 ± 0.3 | ~100 | 3 | 73 | 201.7 ± 0.3 | 1.5 | – | >335.8
